Where two headings read alike, the source gives them in different places.
Tests used:
Experiment in all cases: stopped-flow CO2 hydrase assay
[1] = target: T1, PgiCAγ; format: biochemical, Porphyromonas gingivalis; conditions: CO2 hydration, 10 mM Tris pH 8.3, 0.1 M Na2SO4, 25 °C, 15 min preincubation
T1 construct: gene PgiCA

[2] = target: T2, VchCAγ (Vibrio cholerae, UniProt Q9KVT1); format: biochemical; conditions: CO2 hydration, 10 mM Tris pH 8.3, 0.1 M Na2SO4, 25 °C, 15 min preincubation
T2 construct: gene VC_0058

[3] = target: T3, VchCAα (Vibrio cholerae, UniProt Q9KMP6); format: biochemical; conditions: read-out: VchCAα; CO2 hydration, 10 mM HEPES pH 7.5, 0.1 M Na2SO4, 25 °C, 15 min preincubation
T3 construct: gene VC_A0274

[4] = target: T4, VchCAβ (Vibrio cholerae, UniProt Q9KUD6); format: biochemical
T4 construct: gene VC_0586

[5] = target: T5, PgiCAβ (Porphyromonas gingivalis, UniProt B2RL07); format: biochemical; conditions: CO2 hydration, 10 mM Tris pH 8.3, 0.1 M Na2SO4, 25 °C, 15 min preincubation
T5 construct: gene PGN_1533
T5 sequence (B2RL07 19-242): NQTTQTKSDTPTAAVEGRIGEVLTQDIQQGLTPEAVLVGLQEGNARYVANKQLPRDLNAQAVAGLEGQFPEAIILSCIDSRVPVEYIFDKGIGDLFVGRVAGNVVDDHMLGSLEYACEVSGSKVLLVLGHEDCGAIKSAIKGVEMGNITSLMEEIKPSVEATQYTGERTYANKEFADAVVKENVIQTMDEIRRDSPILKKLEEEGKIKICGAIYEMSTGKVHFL

[6] = target: T6, TweCAδ (Conticribra weissflogii, UniProt Q5U9J1); format: biochemical; conditions: CO2 hydration, 10 mM HEPES pH 7.5, 0.1 M Na2SO4, 25 °C, 15 min preincubation
T6 construct: gene ca1
T6 sequence (Q5U9J1 1-281): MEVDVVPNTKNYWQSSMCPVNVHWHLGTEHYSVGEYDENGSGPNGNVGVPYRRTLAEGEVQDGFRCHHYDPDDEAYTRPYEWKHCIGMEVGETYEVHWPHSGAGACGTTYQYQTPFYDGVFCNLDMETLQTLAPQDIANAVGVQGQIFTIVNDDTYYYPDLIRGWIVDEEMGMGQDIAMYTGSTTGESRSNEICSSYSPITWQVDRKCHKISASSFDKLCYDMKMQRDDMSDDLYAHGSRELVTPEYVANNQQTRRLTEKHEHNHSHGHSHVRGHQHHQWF

T2 sequence (Q9KVT1 1-184): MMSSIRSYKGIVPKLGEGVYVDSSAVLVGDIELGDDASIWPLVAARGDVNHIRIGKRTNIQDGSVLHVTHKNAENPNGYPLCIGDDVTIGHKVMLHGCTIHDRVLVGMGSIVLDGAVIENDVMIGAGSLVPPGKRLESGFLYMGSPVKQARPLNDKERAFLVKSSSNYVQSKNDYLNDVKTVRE
T4 sequence (Q9KUD6 1-222): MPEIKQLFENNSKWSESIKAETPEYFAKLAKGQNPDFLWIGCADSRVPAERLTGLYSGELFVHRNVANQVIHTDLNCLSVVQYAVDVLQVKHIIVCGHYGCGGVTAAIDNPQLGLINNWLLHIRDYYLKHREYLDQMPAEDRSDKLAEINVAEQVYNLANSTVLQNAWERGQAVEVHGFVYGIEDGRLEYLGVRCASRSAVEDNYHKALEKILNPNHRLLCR
T3 sequence (Q9KMP6 21-239 limits assumed): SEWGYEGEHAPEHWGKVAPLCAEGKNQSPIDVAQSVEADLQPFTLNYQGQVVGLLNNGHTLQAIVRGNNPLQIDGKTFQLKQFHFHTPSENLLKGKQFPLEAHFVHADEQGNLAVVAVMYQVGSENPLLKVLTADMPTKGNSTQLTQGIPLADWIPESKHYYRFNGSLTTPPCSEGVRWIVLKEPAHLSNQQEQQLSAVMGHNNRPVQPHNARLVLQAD

Row | Structure (SMILES) | Ki ([1]; read-out: PgiCAγ) | Ki ([2]; read-out: VchCAγ) | Ki [3] | Ki ([4]; read-out: VchCAβ) | Ki ([5]; read-out: VchCAγ) | Ki ([6]; read-out: VchCAγ) | Ki ([2]; read-out: VchCAα) | Ki ([4]; read-out: VchCAα) | Ki ([5]; read-out: VchCAα) | Ki ([6]; read-out: TweCAδ) | Ki ([1]; read-out: VchCAα) | Ki ([5]; read-out: PgiCAβ) | Ki ([6]; read-out: PgiCAβ) | Ki ([6]; read-out: VchCAα)
1 | Cc1ccc(NC(=O)NO)cc1 [compound 2, 2: 4-CH3] | 0.298 µM | > 10 µM | 0.111 µM | 0.483 µM | > 10 µM | > 10 µM |  |  |  |  |  |  |  | 
2 | O=C(NO)Nc1ccc(C(F)(F)F)cc1 [compound 17, 17: 4-CF3] | 2.63 µM |  | > 10 µM |  |  |  | > 10 µM | > 10 µM | > 10 µM | 4.64 µM |  |  |  | 
3 | O=C(NO)Nc1c(F)c(F)c(F)c(F)c1F [compound 16, 16: F5] | 3.48 µM |  | > 10 µM |  |  |  | > 10 µM | > 10 µM | > 10 µM | 3.41 µM |  |  |  | 
4 | Cc1cc(NC(=O)NO)ccc1F [compound 15, 15: 4-F-3-Me] | 2.88 µM |  | > 10 µM |  |  |  | > 10 µM | > 10 µM | > 10 µM | 3.94 µM |  |  |  | 
5 | Cc1cc(C)cc(NC(=O)NO)c1 [compound 12, 12: 3,5-Me2] | 5.49 µM |  | > 10 µM |  |  |  | > 10 µM | > 10 µM | > 10 µM | 0.0578 µM |  |  |  | 
6 | CSc1cccc(NC(=O)NO)c1 [compound 14, 14: 3-MeS] | 0.0598 µM |  | > 10 µM |  |  |  |  | > 10 µM | > 10 µM | 0.052 µM |  |  |  | 
7 | O=C(NO)Nc1ccccc1 [compound 1, 1: H] | 6.42 µM | > 10 µM | 7.26 µM | 1.81 µM | > 10 µM | > 10 µM |  |  |  |  |  |  |  | 
8 | Cc1ccccc1NC(=O)NO [compound 3, 3: 2-CH3] | 4.21 µM | > 10 µM | 0.829 µM | 0.377 µM | > 10 µM | > 10 µM |  |  |  |  |  |  |  | 
9 | O=C(NO)Nc1cccc(Cl)c1 [compound 6, 6: 3-Cl] | 0.819 µM | > 10 µM | 4 µM | 0.0603 µM | > 10 µM | > 10 µM |  |  |  |  |  |  |  | 
10 | O=C(NO)Nc1ccc(Oc2ccccc2)cc1 [compound 20, 20: 4-PhO] |  |  | > 10 µM |  |  |  | > 10 µM | > 10 µM |  | 0.761 µM | > 10 µM |  |  | 
11 | COc1ccccc1NC(=O)NO [compound 19, 19: 2-MeO] |  | 4.75 µM | > 10 µM |  |  |  |  | > 10 µM |  | 2.88 µM | > 10 µM |  |  | 
12 | O=C(NO)Nc1ccc(C(F)(F)F)cc1Cl [compound 18, 18: 4-CF3-2-Cl] |  | 5.43 µM | > 10 µM |  |  |  |  | > 10 µM |  | 0.856 µM | > 10 µM |  |  | 
13 | O=C(NO)Nc1ccc([N+](=O)[O-])cc1 [compound 7, 7: 4-O2N] | 2.7 µM | > 10 µM | 0.509 µM | 0.0541 µM | > 10 µM | > 10 µM |  |  |  |  |  |  |  | 
14 | CCOc1ccccc1NC(=O)NO [compound 13, 13: 2-EtO] | > 10 µM |  | > 10 µM |  |  |  |  | > 10 µM | > 10 µM | 0.0333 µM |  |  |  | 
15 | CCOC(=O)c1cccc(NC(=O)NO)c1 [compound 11, 11: 3-EtOOC] |  |  | > 10 µM |  |  |  | > 10 µM | > 10 µM | > 10 µM | 8.49 µM | > 10 µM |  |  | 
16 | O=C(NO)Nc1ccccc1Cl [compound 5, 5: 2-Cl] | 3.03 µM | > 10 µM | 5.94 µM | 0.0642 µM | > 10 µM | > 10 µM |  |  |  |  |  |  |  | 
17 | Cc1ccc(C)c(NC(=O)NO)c1 [compound 9, 9: 2,5-Me2] | 0.0844 µM | 5.5 µM | 0.0975 µM | 0.0593 µM |  |  |  |  |  |  |  | > 10 µM | > 10 µM | 
18 | O=C(NO)Nc1ccc(Cl)cc1 [compound 4, 4: 4-Cl] | 0.934 µM | > 10 µM | 4.41 µM | 0.541 µM | > 10 µM |  |  |  |  | 8.74 µM |  |  |  | 
19 | O=C(NO)Nc1ccc(F)cc1 [compound 10, 10: 4-F] |  |  | > 10 µM |  |  |  | > 10 µM |  | > 10 µM |  | > 10 µM |  |  | > 10 µM
20 | O=C(NO)Nc1ccccc1[N+](=O)[O-] [compound 8, 8: 2-O2N] | 0.0823 µM | 5.69 µM | 0.536 µM | 0.0525 µM |  |  |  |  |  |  |  | > 10 µM | > 10 µM | 

Source: publication PMC6060382, “Inhibition of α-, β-, γ-, and δ-carbonic anhydrases from bacteria and diatoms with N′-aryl-N-hydroxy-ureas” (Journal of Enzyme Inhibition and Medicinal Chemistry, 2018)
